# Measurements: PubChem BioAssay (NCI)
#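 48-hour exposure; five concentrations; linearly interpolated endpoints. GI50: concentration for 50% inhibition of growth. TGI: total growth inhibition.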
# Tests used:
# Assay in all cases: NCI tumour cell line growth inhibition, 48 h
# SN12C renal = system: SN12C renal
# SNB-19 CNS = system: SNB-19 CNS
# NCI-H460 lung = system: NCI-H460 lung
# SR leukemia = system: SR leukemia
# MDA-MB-435 = system: MDA-MB-435
# OVCAR-5 ovarian = system: OVCAR-5 ovarian
# HOP-62 NSCLC = system: HOP-62 NSCLC
# OVCAR-4 ovarian = system: OVCAR-4 ovarian
# MOLT-4 leukemia = system: MOLT-4 leukemia
# SK-OV-3 ovarian = system: SK-OV-3 ovarian
# OVCAR-8 ovarian = system: OVCAR-8 ovarian
# KM12 colon = system: KM12 colon
# HT29 colon = system: HT29 colon
# RXF 393 renal = system: RXF 393 renal
# UO-31 renal = system: UO-31 renal
# CAKI-1 renal = system: CAKI-1 renal
# HCT-15 colon = system: HCT-15 colon
# MCF7 breast = system: MCF7 breast
# BT-549 breast = system: BT-549 breast
# SW-620 colon = system: SW-620 colon
# UACC-62 melanoma = system: UACC-62 melanoma
# SK-MEL-28 melanoma = system: SK-MEL-28 melanoma
# HL-60(TB) leukemia = system: HL-60(TB) leukemia
# PC-3 prostate = system: PC-3 prostate
# HS 578T breast = system: HS 578T breast
# CCRF-CEM leukemia = system: CCRF-CEM leukemia
# RPMI-8226 leukemia = system: RPMI-8226 leukemia
# SF-268 CNS = system: SF-268 CNS
# HOP-92 NSCLC = system: HOP-92 NSCLC
# HCC-2998 colon = system: HCC-2998 colon
# A498 renal = system: A498 renal
# NCI-H23 lung = system: NCI-H23 lung
# NCI-H522 lung = system: NCI-H522 lung
# HCT-116 colon = system: HCT-116 colon
# OVCAR-3 ovarian = system: OVCAR-3 ovarian
# SF-295 CNS = system: SF-295 CNS
# LOX IMVI melanoma = system: LOX IMVI melanoma
# A549 NSCLC = system: A549 NSCLC
# SNB-75 CNS = system: SNB-75 CNS
# SK-MEL-5 melanoma = system: SK-MEL-5 melanoma
# IGROV1 ovarian = system: IGROV1 ovarian
# TK-10 renal = system: TK-10 renal
# T-47D breast = system: T-47D breast
# COLO 205 colon = system: COLO 205 colon
# MALME-3M melanoma = system: MALME-3M melanoma
# K-562 leukemia = system: K-562 leukemia
# 786-0 renal = system: 786-0 renal
# NCI-H226 lung = system: NCI-H226 lung
# NCI/ADR-RES ovarian = system: NCI/ADR-RES ovarian
# DU-145 prostate = system: DU-145 prostate
# ACHN renal = system: ACHN renal
# UACC-257 melanoma = system: UACC-257 melanoma
# SK-MEL-2 melanoma = system: SK-MEL-2 melanoma
# U251 CNS = system: U251 CNS
# MDA-MB-231 breast = system: MDA-MB-231 breast
# M14 melanoma = system: M14 melanoma
# EKVX NSCLC = system: EKVX NSCLC
smiles,measurement,setting,value
COc1cc(Nc2cc(C)nc(N3CCN(c4ccnc5cc(Cl)ccc45)CC3)n2)cc(OC)c1,GI50,SN12C renal,309 nM
same,TGI,SN12C renal,> 100000 nM
same,GI50,SNB-19 CNS,318 nM
same,TGI,SNB-19 CNS,> 100000 nM
same,GI50,NCI-H460 lung,180 nM
same,TGI,NCI-H460 lung,> 32300 nM
same,GI50,SR leukemia,169 nM
same,TGI,SR leukemia,3300 nM
same,GI50,MDA-MB-435,30.6 nM
same,TGI,MDA-MB-435,105 nM
same,GI50,OVCAR-5 ovarian,487 nM
same,TGI,OVCAR-5 ovarian,> 100000 nM
same,GI50,HOP-62 NSCLC,194 nM
same,TGI,HOP-62 NSCLC,14300 nM
same,GI50,OVCAR-4 ovarian,128 nM
same,TGI,OVCAR-4 ovarian,> 100000 nM
same,GI50,MOLT-4 leukemia,400 nM
same,TGI,MOLT-4 leukemia,> 40900 nM
same,GI50,SK-OV-3 ovarian,253 nM
same,TGI,SK-OV-3 ovarian,> 78900 nM
same,GI50,OVCAR-8 ovarian,337 nM
same,TGI,OVCAR-8 ovarian,> 79100 nM
same,GI50,KM12 colon,32.3 nM
same,TGI,KM12 colon,4730 nM
same,GI50,HT29 colon,266 nM
same,TGI,HT29 colon,2080 nM
same,GI50,RXF 393 renal,35.4 nM
same,TGI,RXF 393 renal,286 nM
same,GI50,UO-31 renal,139 nM
same,TGI,UO-31 renal,> 100000 nM
same,GI50,CAKI-1 renal,198 nM
same,TGI,CAKI-1 renal,> 100000 nM
same,GI50,HCT-15 colon,56.1 nM
same,TGI,HCT-15 colon,> 100000 nM
same,GI50,MCF7 breast,32.4 nM
same,TGI,MCF7 breast,> 100000 nM
same,GI50,BT-549 breast,498 nM
same,TGI,BT-549 breast,6610 nM
same,GI50,SW-620 colon,146 nM
same,TGI,SW-620 colon,> 100000 nM
same,GI50,UACC-62 melanoma,95.5 nM
same,TGI,UACC-62 melanoma,> 71700 nM
same,GI50,SK-MEL-28 melanoma,99.3 nM
same,TGI,SK-MEL-28 melanoma,> 100000 nM
same,GI50,HL-60(TB) leukemia,240 nM
same,TGI,HL-60(TB) leukemia,20800 nM
same,GI50,PC-3 prostate,245 nM
same,TGI,PC-3 prostate,> 100000 nM
same,GI50,HS 578T breast,176 nM
same,TGI,HS 578T breast,> 100000 nM
same,GI50,CCRF-CEM leukemia,268 nM
same,TGI,CCRF-CEM leukemia,> 100000 nM
same,GI50,RPMI-8226 leukemia,313 nM
same,TGI,RPMI-8226 leukemia,3510 nM
same,GI50,SF-268 CNS,377 nM
same,TGI,SF-268 CNS,> 100000 nM
same,GI50,HOP-92 NSCLC,97.3 nM
same,TGI,HOP-92 NSCLC,4680 nM
same,GI50,HCC-2998 colon,222 nM
same,TGI,HCC-2998 colon,4220 nM
same,GI50,A498 renal,84.2 nM
same,TGI,A498 renal,658 nM
same,GI50,NCI-H23 lung,302 nM
same,TGI,NCI-H23 lung,> 100000 nM
same,GI50,NCI-H522 lung,50.1 nM
same,TGI,NCI-H522 lung,651 nM
same,GI50,HCT-116 colon,103 nM
same,TGI,HCT-116 colon,5450 nM
same,GI50,OVCAR-3 ovarian,66.2 nM
same,TGI,OVCAR-3 ovarian,437 nM
same,GI50,SF-295 CNS,49.6 nM
same,TGI,SF-295 CNS,439 nM
same,GI50,LOX IMVI melanoma,133 nM
same,TGI,LOX IMVI melanoma,2820 nM
same,GI50,A549 NSCLC,227 nM
same,TGI,A549 NSCLC,> 39700 nM
same,GI50,SNB-75 CNS,142 nM
same,TGI,SNB-75 CNS,1060 nM
same,GI50,SK-MEL-5 melanoma,77.8 nM
same,TGI,SK-MEL-5 melanoma,351 nM
same,GI50,IGROV1 ovarian,267 nM
same,TGI,IGROV1 ovarian,> 100000 nM
same,GI50,TK-10 renal,538 nM
same,TGI,TK-10 renal,41300 nM
same,GI50,T-47D breast,2360 nM
same,TGI,T-47D breast,> 100000 nM
same,GI50,COLO 205 colon,202 nM
same,TGI,COLO 205 colon,537 nM
same,GI50,MALME-3M melanoma,5080 nM
same,TGI,MALME-3M melanoma,> 100000 nM
same,GI50,K-562 leukemia,108 nM
same,TGI,K-562 leukemia,> 61900 nM
same,GI50,786-0 renal,153 nM
same,TGI,786-0 renal,5820 nM
same,GI50,NCI-H226 lung,362 nM
same,GI50,NCI/ADR-RES ovarian,155 nM
same,TGI,NCI/ADR-RES ovarian,1240 nM
same,GI50,DU-145 prostate,318 nM
same,GI50,ACHN renal,72.7 nM
same,TGI,ACHN renal,> 100000 nM
same,GI50,UACC-257 melanoma,907 nM
same,TGI,UACC-257 melanoma,> 100000 nM
same,GI50,SK-MEL-2 melanoma,186 nM
same,TGI,SK-MEL-2 melanoma,> 100000 nM
same,GI50,U251 CNS,268 nM
same,TGI,U251 CNS,> 100000 nM
O=C1CNc2cc(N3CCN(c4ccccc4)CC3)ccc2N1,TGI,SNB-19 CNS,> 100000 nM
same,TGI,NCI-H460 lung,> 100000 nM
same,TGI,SR leukemia,> 100000 nM
same,TGI,MDA-MB-435,> 100000 nM
same,TGI,OVCAR-5 ovarian,> 100000 nM
same,TGI,HOP-62 NSCLC,> 100000 nM
same,TGI,OVCAR-4 ovarian,> 100000 nM
same,TGI,MOLT-4 leukemia,> 100000 nM
same,TGI,SK-OV-3 ovarian,> 100000 nM
same,TGI,OVCAR-8 ovarian,> 100000 nM
same,TGI,KM12 colon,> 100000 nM
same,TGI,HT29 colon,> 100000 nM
same,TGI,RXF 393 renal,> 100000 nM
same,TGI,UO-31 renal,> 100000 nM
same,TGI,CAKI-1 renal,> 100000 nM
same,TGI,HCT-15 colon,> 100000 nM
same,TGI,BT-549 breast,> 100000 nM
same,TGI,SW-620 colon,> 100000 nM
same,TGI,UACC-62 melanoma,> 100000 nM
same,TGI,SK-MEL-28 melanoma,> 100000 nM
same,TGI,HL-60(TB) leukemia,> 100000 nM
same,TGI,PC-3 prostate,> 100000 nM
same,TGI,HS 578T breast,> 100000 nM
same,TGI,CCRF-CEM leukemia,> 100000 nM
same,TGI,MDA-MB-231 breast,> 100000 nM
same,TGI,RPMI-8226 leukemia,> 100000 nM
same,TGI,SF-268 CNS,> 100000 nM
same,TGI,HOP-92 NSCLC,> 100000 nM
same,TGI,HCC-2998 colon,> 100000 nM
same,TGI,A498 renal,> 100000 nM
same,TGI,NCI-H23 lung,> 100000 nM
same,TGI,NCI-H522 lung,> 100000 nM
same,TGI,HCT-116 colon,> 100000 nM
same,TGI,OVCAR-3 ovarian,> 100000 nM
same,TGI,SF-295 CNS,> 100000 nM
same,TGI,LOX IMVI melanoma,> 100000 nM
same,TGI,M14 melanoma,> 100000 nM
same,TGI,A549 NSCLC,> 100000 nM
same,TGI,SNB-75 CNS,> 100000 nM
same,TGI,SK-MEL-5 melanoma,> 100000 nM
same,TGI,IGROV1 ovarian,> 100000 nM
same,TGI,TK-10 renal,> 100000 nM
same,TGI,EKVX NSCLC,> 100000 nM
same,TGI,T-47D breast,> 100000 nM
same,TGI,COLO 205 colon,> 100000 nM
same,TGI,MALME-3M melanoma,> 100000 nM
same,TGI,K-562 leukemia,> 100000 nM
same,TGI,786-0 renal,> 100000 nM
same,TGI,NCI-H226 lung,> 100000 nM
same,TGI,NCI/ADR-RES ovarian,> 100000 nM
same,TGI,DU-145 prostate,> 100000 nM
same,TGI,ACHN renal,> 100000 nM
same,TGI,UACC-257 melanoma,> 100000 nM
same,TGI,SK-MEL-2 melanoma,> 100000 nM
same,TGI,U251 CNS,> 100000 nM
